Laboratory results reported in PubChem BioAssay AID2060502 (Molecular Pharmacology Branch, DTP, NCI, 2025).

Test system: 885724-159-R-J1-PDC complex spheroid viability
Test: Anticancer human tumor 885724-159-R-J1-PDC patient-derived pancreatic adenocarcinoma cell line growth inhibition [GQUAD]
Conditions: for IC50: curve of first compound; for viability, T/C: stronger effect = lower value
Description: DNA G-quadruplex Stabilizer Agents in Combinations in Complex Spheroids
A high-throughput screen of multi-cell type tumor spheroids was designed to identify active combinations of DNA G-quadruplex stabilizer agents and targeted small molecules. Complex spheroids include a stromal component modeled by human endothelial cells (HUVEC) and fibroblasts modeled by human mesenchymal stem cells (MSCs). The concentration ranges selected for each drug and investigational agent were based upon clinically achievable concentrations if the clinical Cmax of the agent was known.
Compounds. The drugs and investigational agents: pidnarulex (CX-5461; NSC782164), APTO-253 (NSC789042), BRACO-19 (NSC847499), peposertib (NSC802822), ceralasertib (NSC780249), elimusertib (NSC800525), camonsertib (NSC841442), AZD-1390 (NSC803789), olaparib (NSC753686), talazoparib (NSC767125), ART-558 (NSC835418), sotorasib (NSC818433), MRTX-1133 (NSC836407), SN-38 (NSC673596), topotecan (NSC609699), etoposide (NSC141540), doxorubicin (NSC123127), gemcitabine (NSC613327), 5-fluorouracil (NSC19893), paclitaxel (NSC125973), vemurafenib (NSC761431), panobinostat (NSC761190), R-306465 (JNJ-16241199; NSC773264), adavosertib (NSC754352), TP-3654 (NSC805149), carboplatin (NSC241240), KSQ-4279 (NSC840948), and staurosporine (NSC755774) were obtained from the National Cancer Institute (NCI) Developmental Therapeutics Program Chemical Repository (34). The FDA-approved anticancer drug set is available from the NCI Developmental Therapeutics Program. […] The stock solutions were prepared in dimethyl sulfoxide (DMSO, Sigma-Aldrich, St. Louis, MO, cat. D2650) at 800-fold the tested concentration and stored at -70 degrees C prior to their use. All drugs and investigational agents were tested over a range starting from a high concentration at or near the clinical Cmax and decreasing in half-log increments. If the clinical Cmax for an agent had not been determined, the highest concentration tested was 10 microM.
2.3 Cell Culture. All cells were maintained in an incubator at 37 degrees C and 5% CO2 with 95% humidity. The PDC lines were cultured according to standard operating procedures established by the NCI PDMR. All PDCs were thawed and cultured in Matrigel-coated flasks prepared with a working solution of 1X Ham's F-12 nutrient mix, without supplementation (Invitrogen, cat. 11765054), 100 U/mL penicillin-streptomycin (Invitrogen, cat. 15140122), and 2.5% Matrigel (Corning Inc., cat. 354248) for the first three passages. The 857933-349-R-J2-PDC line was cultured in 6C/Colon 1B media, which includes advanced DMEM/F-12 (Thermo Fisher Scientific, cat. 12634028), 10 mM HEPES (Thermo Fisher Scientific, cat. 15630080), 1X GlutaMAX supplement (Thermo Fisher Scientific, cat. 35050061), 0.1 mg/mL primocin (InvivoGen, cat. ant-pm-2), 10% defined fetal bovine serum, heat inactivated (HyClone Laboratories Inc., cat. SH30070.03HI), 50% L-WRN conditioned media (ATCC, cat. CRL-3276), 1.25 mM N-Acetyl-L-cysteine (Sigma-Aldrich, cat. A9165), 10 mM nicotinamide (Sigma-Aldrich, cat. N0636), 1X B-27 supplement (Thermo Fisher Scientific, cat. 17504044), 1X N-2 supplement (Thermo Fisher Scientific, cat. 17502048), 10 microM Y-27632 dihydrochloride (Tocris Bioscience, cat. 1254), and 50 ng/mL human EGF recombinant protein (Thermo Fisher Scientific, cat. PHG0311). The 485176-168-R4-J1-PDC line was cultured in Panc media, which includes all 6C/Colon 1B media components plus 100 ng/mL human FGF-10 (Thermo Fisher Scientific, cat. 100-26), 500 nM SB-431542 (Selleckchem, cat. S1067), and gastrin (Tocris, cat. 3006).
[…]
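Further: spheroids exposed to agents for seven days before readout.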
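Wherever viability, T/C is given: percent of vehicle control viability where 100% = DMSO wells.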

With CC[C@@]1(O)C(=O)OCc2c1cc1n(c2=O)Cc2cc3c(CN(C)C)c(O)ccc3nc2-1 + CN(C)c1ccc(Nc2c3ccc(NC(=O)CCN4CCCC4)cc3nc3cc(NC(=O)CCN4CCCC4)ccc23)cc1 the IC50 (second compound 0.0316 µM) was over 316 nM, the IC50 (second compound 0.1 µM) was over 316 nM and the IC50 (second compound 0.316 µM) was over 316 nM. For the same compound, the IC50 (second compound 1 µM) was over 316 nM, the IC50 (second compound 3.16 µM) was over 316 nM and the IC50 (second compound 10 µM) was over 316 nM. The viability, T/C (second compound 0.0316 µM, first compound 0.000999 µM) was 100%, the viability, T/C (second compound 0.0316 µM, first compound 0.00316 µM) was 93.2% and the viability, T/C (second compound 0.0316 µM, first compound 0.00999 µM) was 97.2%. The viability, T/C (second compound 0.0316 µM, first compound 0.0316 µM) was 93.6%, the viability, T/C (second compound 0.0316 µM, first compound 0.0999 µM) was 76.7% and the viability, T/C (second compound 0.0316 µM, first compound 0.316 µM) was 67.7%. For the same compound, the viability, T/C (second compound 0.1 µM, first compound 0.000999 µM) was 95.9%, the viability, T/C (second compound 0.1 µM, first compound 0.00316 µM) was 98.6% and the viability, T/C (second compound 0.1 µM, first compound 0.00999 µM) was 100%. The viability, T/C (second compound 0.1 µM, first compound 0.0316 µM) was 84.2%, the viability, T/C (second compound 0.1 µM, first compound 0.0999 µM) was 78% and the viability, T/C (second compound 0.1 µM, first compound 0.316 µM) was 67.2%. The viability, T/C (second compound 0.316 µM, first compound 0.000999 µM) was 78.5%, the viability, T/C (second compound 0.316 µM, first compound 0.00316 µM) was 86.1% and the viability, T/C (second compound 0.316 µM, first compound 0.00999 µM) was 83.2%. The viability, T/C (second compound 0.316 µM, first compound 0.0316 µM) was 82.1%, the viability, T/C (second compound 0.316 µM, first compound 0.0999 µM) was 89.6% and the viability, T/C (second compound 0.316 µM, first compound 0.316 µM) was 63.9%. It also gave a viability, T/C (second compound 1 µM, first compound 0.000999 µM) of 76.4%, a viability, T/C (second compound 1 µM, first compound 0.00316 µM) of 82.3% and a viability, T/C (second compound 1 µM, first compound 0.00999 µM) of 76.9%. For the same compound, the viability, T/C (second compound 1 µM, first compound 0.0316 µM) was 65.4%, the viability, T/C (second compound 1 µM, first compound 0.0999 µM) was 87.2% and the viability, T/C (second compound 1 µM, first compound 0.316 µM) was 62.4%. For the same compound, the viability, T/C (second compound 3.16 µM, first compound 0.000999 µM) was 81.3%, the viability, T/C (second compound 3.16 µM, first compound 0.00316 µM) was 70.5% and the viability, T/C (second compound 3.16 µM, first compound 0.00999 µM) was 74.8%. For the same compound, the viability, T/C (second compound 3.16 µM, first compound 0.0316 µM) was 66.3%, the viability, T/C (second compound 3.16 µM, first compound 0.0999 µM) was 67.9% and the viability, T/C (second compound 3.16 µM, first compound 0.316 µM) was 51.6%. The viability, T/C (second compound 10 µM, first compound 0.000999 µM) was 89.7%, the viability, T/C (second compound 10 µM, first compound 0.00316 µM) was 87.5% and the viability, T/C (second compound 10 µM, first compound 0.00999 µM) was 77.3%. The viability, T/C (second compound 10 µM, first compound 0.0316 µM) was 79.8%, the viability, T/C (second compound 10 µM, first compound 0.0999 µM) was 73.7% and the viability, T/C (second compound 10 µM, first compound 0.316 µM) was 52.4%.
